What was measured:
Test in all cases: Glasshouse herbicidal test, pre- and post-emergence (Table B1)
Format in all cases: in vivo
Setaria faberi (SETFA) = conditions: 130 g/h, evaluated after 13 days; for percentage damage caused to the plant, POST Application SETFA: post-emergence; for percentage damage caused to the plant, PRE Application SETFA: pre-emergence
Protocol: (§1) Seeds of a variety of test species are sown in standard soil in pots (Lolium perenne (LOLPE), Amaranthus retoflexus (AMARE), Amaranthus palmeri (AMAPA), Ablution theophrasti (ABUTH), Setaria faberi (SETFA), Echinochloa crus-galli (ECHCG), Ipomoea hederacea (IPOHE)). After cultivation for one day (pre-emergence) or after 8 days cultivation (post-emergence) under controlled conditions in a glasshouse (at 24/16° C., day/night; 14 hours light; 65% humidity), the plants are sprayed with an aqueous spray solution derived from the formulation of the technical active ingredient in acetone/water (50:50) solution containing 0.5% Tween 20 (polyoxyethelyene sorbitan monolaurate, CAS RN 9005-64-5). Compounds are applied at 130 g/h unless otherwise indicated. The test plants are then grown in a glasshouse under controlled conditions in a glasshouse (at 24/16° C., day/night; 14 hours light; 65% humidity) and watered twice daily. After 13 days for pre and post-emergence, the test is evaluated for the percentage damage caused to the plant. The biological activities are shown in the following table on a five-point scale (5=80-100%; 4=60-79%; 3=40-59%; 2=20-39%; 1=0-19%).

[1] = system: Echinochloa crus-galli (ECHCG); conditions: 130 g/h, evaluated after 13 days; for percentage damage caused to the plant, POST Application ECHCG: post-emergence; for percentage damage caused to the plant, PRE Application ECHCG: pre-emergence
Protocol: as §1

[2] = system: Ipomoea hederacea (IPOHE); conditions: 130 g/h, evaluated after 13 days; for percentage damage caused to the plant, POST Application IPOHE: post-emergence; for percentage damage caused to the plant, PRE Application IPOHE: pre-emergence
Protocol: as §1

[3] = system: Ablution theophrasti (ABUTH); conditions: 130 g/h, evaluated after 13 days; for percentage damage caused to the plant, POST Application ABUTH: post-emergence; for percentage damage caused to the plant, PRE Application ABUTH: pre-emergence
Protocol: as §1

[4] = system: Amaranthus retoflexus (AMARE); conditions: 130 g/h, evaluated after 13 days; for percentage damage caused to the plant, POST Application AMARE: post-emergence; for percentage damage caused to the plant, PRE Application AMARE: pre-emergence
Protocol: as §1

[5] = system: Amaranthus palmeri (AMAPA); conditions: 130 g/h, evaluated after 13 days
Protocol: as §1

SMILES | percentage damage caused to the plant, POST Application SETFA (Setaria faberi (SETFA)) | percentage damage caused to the plant, PRE Application SETFA (Setaria faberi (SETFA)) | percentage damage caused to the plant, POST Application ECHCG [1] | percentage damage caused to the plant, PRE Application ECHCG [1] | percentage damage caused to the plant, POST Application IPOHE [2] | percentage damage caused to the plant, PRE Application IPOHE [2] | percentage damage caused to the plant, POST Application ABUTH [3] | percentage damage caused to the plant, PRE Application ABUTH [3] | percentage damage caused to the plant, POST Application AMARE [4] | percentage damage caused to the plant, PRE Application AMARE [4] | percentage damage caused to the plant, POST Application AMAPA ([5]; post-emergence) | percentage damage caused to the plant, PRE Application AMAPA ([5]; pre-emergence)
Cn1nnnc1NC(=O)c1ccc(OC(F)F)c(NS(=O)(=O)C2CC2)c1Cl [Compound 1.067] | 5 (5=80-100%) | 3 (3=40-59%) | 5 (5=80-100%) | 4 (4=60-79%) | 5 (5=80-100%) | 4 (4=60-79%) | 5 (5=80-100%) | 5 (5=80-100%) | 4 (4=60-79%) | 5 (5=80-100%) |  | 
CCS(=O)(=O)Nc1c(OC(F)(F)F)ccc(C(=O)Nc2nnnn2C)c1Cl [Compound 1.003, 2-chloro-3-(ethylsulfonylamino)-N-(1-methyltetrazol-5-yl)-4-(trifluoromethoxy)benzamide] | 5 (5=80-100%) | 4 (4=60-79%) | 5 (5=80-100%) | 5 (5=80-100%) | 5 (5=80-100%) | 4 (4=60-79%) | 5 (5=80-100%) | 5 (5=80-100%) | 4 (4=60-79%) | 5 (5=80-100%) |  | 
CCn1nnnc1NC(=O)c1ccc(OC(F)F)c(NS(C)(=O)=O)c1Cl [Compound 1.059] | 5 (5=80-100%) | 4 (4=60-79%) | 5 (5=80-100%) | 5 (5=80-100%) | 5 (5=80-100%) | 2 (2=20-39%) | 5 (5=80-100%) | 5 (5=80-100%) | 5 (5=80-100%) | 5 (5=80-100%) |  | 
CCn1nnnc1NC(=O)c1ccc(OC(F)(F)F)c(NS(C)(=O)=O)c1Cl [Compound 1.001] | 5 (5=80-100%) | 3 (3=40-59%) | 5 (5=80-100%) | 5 (5=80-100%) | 5 (5=80-100%) | 4 (4=60-79%) | 5 (5=80-100%) | 5 (5=80-100%) | 4 (4=60-79%) | 5 (5=80-100%) |  | 
CCS(=O)(=O)Nc1c(OC(F)F)ccc(C(=O)Nc2nnnn2C)c1Cl [Compound 1.064] | 5 (5=80-100%) | 4 (4=60-79%) | 5 (5=80-100%) | 5 (5=80-100%) | 4 (4=60-79%) | 2 (2=20-39%) | 5 (5=80-100%) | 5 (5=80-100%) | 5 (5=80-100%) | 5 (5=80-100%) | 5 (5=80-100%) | 5 (5=80-100%)
CC(C)S(=O)(=O)Nc1c(OC(F)F)ccc(C(=O)Nc2nnnn2C)c1Cl [Compound 1.013] | 5 (5=80-100%) | 4 (4=60-79%) | 5 (5=80-100%) | 5 (5=80-100%) | 5 (5=80-100%) | 5 (5=80-100%) | 5 (5=80-100%) | 5 (5=80-100%) | 5 (5=80-100%) | 5 (5=80-100%) |  | 

— US12715849B2, “Herbicidal tetrazole compounds” (SYNGENTA CROP PROTECTION AG, priority 2020, dated 2026)
